Data set [1] deals with M. tuberculosis H37Rv. Kind of data set: Conventional aerobic (MABA) culture assay, luminescence MIC. Format: cell-based, Mycobacterium tuberculosis. The note with it: for MIC: Mycobacterium tuberculosis, 168 h.
The nature of data set [2]: Cytotoxicity on VERO cells (MTT), anti-T. cruzi study. The conditions noted are these: African green monkey, VERO cells.
The next data set deals with L. amazonensis. The conditions noted are these: intralesional, compounds 5 mg/kg/day, Glucantime 33 mg Sb(v)/kg/day; for Mean lesion wt (mg) (±SD): BALB/c mice n=10; for % Variation of lesion wt / % reduction of parasite burden in the lesion: vs control.
Data set [3] has as its system axenic amastigotes of L. amazonensis (strain MHOM/BR/76/LTB-012). The note with it: Table 8b.
The subject of data set [4] is M. tuberculosis H37Rv. Kind of data set: Anti-tuberculosis bioassay (tetrazolium microplate MIC). In kind it is cell-based. The conditions noted are these: Mycobacterium tuberculosis, read-out: Mycobacterium MIC H37Rv, Table 5.
Data set [5] concerns VERO cells. Kind of data set: VERO cells IC50 (Table 5). The conditions noted are these: Chlorocebus sabaeus. Format: cell-based, African green monkey.
A further data set deals with L. peruviana LCA08. Kind of data set: Activity against macrophages infected with Leishmania amastigotes. The note with it: Leishmania peruviana, Macrophage, read-out: IC50 L. peruviana LCA08.
The subject of another data set is 3T3 cells. Briefly: Cell growth inhibition bioassay (sulforhodamine B). The note with it: 48 h, SRB. In kind it is cell-based, mouse. The method, boiled down: (§1)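 Cells were exposed to compound alongside matched solvent controls, then stained with sulforhodamine B. Percent growth inhibition was calculated from dye absorbance against the control.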
Data set [6] concerns Trypanosoma cruzi (Tulahuen C4). Briefly: In vitro anti-T. cruzi activity (β-galactosidase CPRG colorimetric assay in VERO monolayer). In kind it is cell-based.
For data set [7], the system named is axenic amastigotes of L. amazonensis (strain MHOM/BR/76/LTB-012). Kind of data set: microbe, parasite or virus in culture. The note with it: Leishmania amazonensis.
The next data set deals with M. tuberculosis MDR. Kind of data set: Anti-tuberculosis bioassay (tetrazolium microplate MIC). In kind it is cell-based. The conditions noted are these: Mycobacterium tuberculosis, read-out: Mycobacterium MIC MDR.
A further data set concerns L. braziliensis PER006. Briefly: Activity against macrophages infected with Leishmania amastigotes. The note with it: Leishmania braziliensis, Macrophage, read-out: IC50 L. braziliensis PER006.
In the next data set the test system is H460 cells. Briefly: Cell growth inhibition bioassay (sulforhodamine B). Format: cell-based, human. The note with it: 48 h, SRB. A digest of the protocol:
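SRB colorimetric read-out; % growth inhibition vs solvent control. Human lines: MCF-7 (breast adenocarcinoma), DU145 (prostate carcinoma), PC3 (prostate adenocarcinoma), H460 (large cell lung cancer).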

A further data set has as its system M-14 cells. Kind of data set: Cell growth inhibition bioassay (sulforhodamine B). In kind it is cell-based, human. The conditions noted are these: 48 h, SRB. The method, boiled down:
as §1

The subject of the next data set is DU145 cells. Briefly: Cell growth inhibition bioassay (sulforhodamine B). Format: cell-based, human. The conditions noted are these: 48 h, SRB. The method, boiled down: (§2)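 Growth inhibition was measured colorimetrically with sulforhodamine B staining and expressed as percent inhibition relative to solvent-treated controls. Cell lines were human: MCF-7 breast adenocarcinoma, DU145 and PC3 prostate carcinoma/adenocarcinoma, H460 large cell lung cancer.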

A further data set relates to MCF-7 cells. Briefly: Cell growth inhibition bioassay (sulforhodamine B). Format: cell-based, human. The note with it: 48 h, SRB. A digest of the protocol:
as §2

A further data set relates to HT-29 cells. Kind of data set: Cell growth inhibition bioassay (sulforhodamine B). Format: cell-based, human. The note with it: 48 h, SRB. The method, boiled down:
as §1

In the next data set the test system is K562 cells. Kind of data set: Cell growth inhibition bioassay (sulforhodamine B). Format: cell-based, human. The note with it: 48 h, SRB. The method, boiled down:
as §1

A short description of data set [8]: Toxicity to peritoneal macrophages (Trypan Blue count). In kind it is cell-based, BALB/C mouse. The conditions noted are these: BALB/C, mouse.
Data set [9] relates to VERO cells. Briefly: Cell growth inhibition bioassay (sulforhodamine B). Format: cell-based, African Green Monkey. The note with it: 48 h, SRB. The method, boiled down: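 Cytotoxicity is read by sulforhodamine B colorimetry following the Skehan protocol; values are growth inhibition relative to solvent-only wells.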
Data set [10] has as its system VERO cells.
In a further data set the test system is peritoneal macrophages. Briefly: Toxicity to peritoneal macrophages (Trypan Blue count). In kind it is cell-based, BALB/C mouse.
The next data set can be described thus: in vitro. The note with it: African green monkey.

Structures are written as SMILES. Values after ≈ are worked out from the molar mass of the structure shown. Where two headings read alike, the source gives them in different places. Bounds are passed on as bounds.

The MIC is the lowest concentration that inhibits growth of the organism. As a reminder, the IC50 is the concentration that gives 50% inhibition. Usually GI50 stands for the concentration that inhibits growth by half.

Experimental for L. peruviana LCA08: A cloned line of Leishmania amazonensis(strain MHOM/BR/76/LTB-012) was used in all experiments. Axenically grown amastigote forms of L. amazonensis were maintained by weekly subpassages in MAA/20 medium (Sereno and Lemesre, Antimicrobial Agents and Chemotherapy 41, 972-976 (1997)) at 32±1° C. in 25 cm^2 tissue culture flasks. L. peruviana (strain MHOM/PE/LCA08) and L. braziliensis (strainMHOM/PE/PER006) were maintained in the promastigote stage in a biphasic medium (blood agar with 0.89% NaCl, pH 7.4) at 24° C., with sub-passage every 3 to 4 days. Promastigotes (5×10^6 parasites) were then transferred to 25 cm2 tissue culture flasks containing 5 ml of M199 medium supplemented with 10% foetal bovine serum (FBS), pH 7.4. After 4 days, exponential phase promastigotes were centrifuged for 10 minutes at 1500 g and 4° C. The supernatant was discarded and replaced by fresh M199 medium supplemented with 20% FBS, pH 5.5. Axenic amastigotes transformation was then induced by increasing the temperature to 34° C. and incubating for 96 h (Teixeira et al., Parasitology Research 88, 963-968 (2002)).
Extracted cells were immediately deposited on sterile 4×4 mm cover glasses and placed in each well of a 96-well plate. Plates were incubated for 24 h at 37° C., 5% CO2 to allow cell adhesion (Castillo et al, Journal of Ethnopharmacology 112, 410-414 (2007)). Pre-warmed complete M199 medium was used twice to remove non-adherent cells. A neutral red method (Fautz et al., Mutation Research 253, 173-179 (1991)) was employed to determine cell concentration. Approximately 7×10^4 viable cells were deposited in each well for adhesion.
Infection of macrophages by amastigotes was determined as follows. […] Twelve hours after infection, a solution of the compounds to be tested was added to the cultures at various concentrations and maintained at 37° C. in 5% CO2 for a further forty-eight hours more. The plates were fixed with methanol and stained with 10% Giemsa stain. The percentage of infected macrophages was determined microscopically at 100 times magnification. The number of intracellular amastigotes was determined in 300 cells. Following Delorenzi et al. Antimicrobial Agents and Chemotherapy, 45, 1349-1354 (2001)) the percentage of infection rate (% IR) of each culture was calculated as follows: % IR=100−(infection rate of the treated culture/infection rate of the untreated culture)×100.
All experiments were performed in triplicate. ANOVA was used to test for statistical significance of differences (Epi-Info, Statview student program). The total parasite burden was calculated as a mean number of amastigotes per cells multiplied by the number of infected macrophages.

With `Clc1ccc(/C=N\Nc2ncnc3sc4c(c23)CCCC4)cc1` [II-28], the MIC against M. tuberculosis H37Rv [1] (aerobic, 7 days, H37Rv) was greater than 100 µg/mL; with M. tuberculosis H37Rv [4] it was 12.5 µg/mL (≈ 36.5 µM); in the data set on M. tuberculosis MDR, 6.25 µg/mL (≈ 18.2 µM). The IC50 in data set [2] (Cytotoxicity VERO Lab B, Lab B) is 7 µg/mL (≈ 20.4 µM); in [2] (IC50 - VERO Cytotoxicity, Table 2), 27 µg/mL (≈ 78.8 µM); with VERO cells [5], greater than 80 µg/mL; in the data set with L. peruviana LCA08, greater than 10 µg/mL; in data set [6] (Trypanosoma cruzi, TULAHUEN, Vero, Lab A, read-out: T. cruzi IC50 Lab A), 1.6 µg/mL (≈ 4.67 µM); in [6] (Trypanosoma cruzi, TULAHUEN, Vero, Lab B, read-out: T. cruzi IC50 Lab B) it was 4.5 µg/mL (≈ 13.1 µM). The IC50 in [6] (Trypanosoma cruzi, TULAHUEN, Vero, Table 2, read-out: IC50 - T. cruzi) was 6.5 µg/mL (≈ 19 µM); in data set [7] (read-out: IC50 Cytotoxicity Against Amastigotes), 3.3 µM; in data set [7] (read-out: L. amazonensis IC50) it was 0.6 µM; in the data set with L. braziliensis PER006, 5.9 µg/mL (≈ 17.2 µM). Moreover, the “Mean lesion size (mm)” value in the data set on L. amazonensis (after 4 weeks treatment) was found to be 3.6 mm; with L. amazonensis (after 7 weeks treatment), 5.2 mm. For the same compound, the “Mean parasite quantification (per 10^6) in lesion per mg (±SD)” value in the data set on L. amazonensis (after 4 weeks treatment) is given as 0.92 (±0.32) amastigotes (×10^6)/mg; in the data set with L. amazonensis (after 7 weeks treatment), 1.26 (±0.02) amastigotes (×10^6)/mg. Moreover, the “Mean lesion wt (mg) (±SD)” value is 60.4 (±31.3) mg in the data set on L. amazonensis (after 4 weeks treatment) and 169.1 (±15.3) mg in the data set with L. amazonensis (after 7 weeks treatment). The “% Variation of lesion wt” value with L. amazonensis (after 4 weeks treatment) is on record as 0%; in the data set on L. amazonensis (after 7 weeks treatment), −90%. The “% reduction of parasite burden in the lesion” value with L. amazonensis (after 4 weeks treatment) worked out at 46%; in the data set with L. amazonensis (after 7 weeks treatment) it was 25%. Besides, the “Selectivity Index” value in data set [3] came out at 85.2. Moreover, the GI50 in the data set on 3T3 cells (Mus musculus, NIH3T3, read-out: GI50 in indicated cell line: 3T3) is 6.4 µg/mL (≈ 18.7 µM); with H460 cells (Homo sapiens, NCI-H460, read-out: GI50 in indicated cell line: H460) it was 4.4 µg/mL (≈ 12.8 µM); in the data set with M-14 cells (Homo sapiens, M14, read-out: GI50 in indicated cell line: M-14), greater than 62.5 µg/mL; in the data set with DU145 cells (Homo sapiens, DU-145, read-out: GI50 in indicated cell line: DU145) it was 5 µg/mL (≈ 14.6 µM); in the data set with MCF-7 cells (Homo sapiens, MCF7, read-out: GI50 in indicated cell line: MCF-7) it was 2.9 µg/mL (≈ 8.46 µM); with HT-29 cells (Homo sapiens, HT-29, read-out: GI50 in indicated cell line: HT-29) it was 5.2 µg/mL (≈ 15.2 µM). In addition, the GI50 with K562 cells (Homo sapiens, K562, read-out: GI50 in indicated cell line: K562) is 2.3 µg/mL (≈ 6.71 µM); in the data set on VERO cells [9] (Chlorocebus sabaeus, Vero, read-out: GI50 in indicated cell line: VERO) it was 3 µg/mL (≈ 8.75 µM). Also, in [6] (IC50, VERO/IC50, T. cruzi, Lab B), the “Selectivity Index Lab B” value worked out at 1.6. Moreover, in [6] (Trypanosoma cruzi, TULAHUEN, Vero, 120 h, 10 μg/mL of each compound, 120 hours, read-out: T. cruzi Inhib. (%)), the inhibition at 10 µg/mL stood at 74.7%. For the same compound, the 50% inhibitory concentration (IC50) at 48 h is 48.8 µM in [8] (Cytotoxicity Macrophages IC50) and greater than 10 µM in data set [8] (IC50 Cytotoxicity Against Macrophages).
Consider `CC(C)=NNc1ncnc2sc3c(c12)CCCC3` [II-44], for which, in the data set with VERO cells [10], the “Cytotoxicity VERO Lab B” value amounted to 10.0. For the same compound, the “MIC MABA” value against M. tuberculosis H37Rv [1] (aerobic, 7 days, H37Rv) came out at 62.4 µg/mL (≈ 240 µM). In addition, the IC50 in [3] (read-out: L. amazonensis IC50) came to 10.6 µM; with peritoneal macrophages it was 62 µM. The “GI50 in indicated cell line: 3T3” value in the data set with 3T3 cells was less than 0.98 µg/mL. The “T. cruzi IC50 Lab A” value in [6] (Lab A) is 3.2 µg/mL. Further, in data set [6] (Lab B), the “T. cruzi IC50 Lab B” value was 3.7 µg/mL. Moreover, the “GI50 in indicated cell line: H460” value in the data set on H460 cells worked out at 2.4 µg/mL (≈ 9.22 µM). In the data set with M-14 cells, the “GI50 in indicated cell line: M-14” value was 6.1 µg/mL (≈ 23.4 µM). For the same compound, the “GI50 in indicated cell line: DU145” value in the data set on DU145 cells stood at 3.0 µg/mL (≈ 11.5 µM). Moreover, the “GI50 in indicated cell line: MCF-7” value in the data set with MCF-7 cells is 3.2 µg/mL (≈ 12.3 µM). In addition, the “GI50 in indicated cell line: HT-29” value with HT-29 cells is 8.6 µg/mL (≈ 33 µM). Moreover, the “GI50 in indicated cell line: K562” value with K562 cells stood at 3.5 µg/mL (≈ 13.4 µM). For the same compound, the “Cytotoxicity VERO cell” value in the data set on VERO cell came out at 32.7 µg/mL. The “GI50 in indicated cell line: VERO” value with VERO cells [9] was 3.7 µg/mL (≈ 14.2 µM).
With `CO[C@H]1/C=C/O[C@@]2(C)Oc3c(C)c(O)c4c(O)c(c(/C=N/N5CCN(C)CC5)c(O)c4c3C2=O)NC(=O)/C(C)=C\C=C\[C@H](C)[C@H](O)[C@@H](C)[C@@H](O)[C@@H](C)[C@H](OC(C)=O)[C@@H]1C` [Rifampin, reference compound], the MIC against M. tuberculosis H37Rv [1] (aerobic, 7 days, H37Rv) was determined as 0.09 µg/mL (≈ 0.109 µM). Besides, the “Selectivity Index H37Rv” value with M. tuberculosis H37Rv [1] (VERO vs MABA MIC) is on record as 1025.8. Also, half-maximal inhibition in the data set “in vitro” (IC50) required 97.2 µg/mL (≈ 118 µM).

Values taken from patent US9061984B2 (University of Louisville Research Foundation, Inc., priority 2008, dated 2015).
